We go through 29 compounds from patent US12570675B2, “Boronic acid compounds” (LG CHEM, LTD., priority 2020, dated 2026).

The structures appear in SMILES notation. Some results are limits rather than exact numbers.

As a reminder, the IC50 is the point on the concentration scale where inhibition reaches its midpoint.

The assay addresses Proteasome chymotrypsin-like activity (S26 protein from RPMI8226 cells) (Homo sapiens, UniProt P28074). Format: biochemical. Conditions: S26 protein from RPMI8226 cell extract 2 ug/well, substrate 20 uM, 37° C., 90 minutes; read-out: Proteasome chymotrypsin-like activity inhibition IC50. Here is the method:
The abilities to inhibit the proteasome activity of the compounds described in the Examples of the present invention and boronic acid drugs were evaluated as follows.
RPMI8226 cells, which is a multiple myeloma cell line, were cultured and then separated by a centrifuge, and washed twice with phosphate buffered saline (PBS). 20 mM of a tris-HCl (pH 8.0) buffer solution was added to the washed cells, and the cells were disrupted by a homogenizer and centrifuged to obtain S26 protein from the supernatant. Suc-Leu-Leu-Val-Tyr-AMC, for a fluorogenic substrate for the chymotrypsin-like activity of the proteasome, and Z-Leu-Leu-Glu-AMC, for a fluorogenic substrate for the caspase-like activity, were purchased from Calbiochem, EMD Millipore and used. Into each well of a 96-well plate (opaque, black round bottom), 20 ul of the S26 protein (final RPMI8226 cell extract concentration: 2 ug/well), 10 ul of S26 proteasome inhibitor serially diluted from 10 uM (final DMSO concentration: 0.5%), and 20 ul of the fluorogenic substrate for the proteasome chymotrypsin-like or caspase-like activity (final concentration: 20 uM) were added and mixed and allowed to react in a 37° C. incubator for 90 minutes. The fluorescence of the fluorogenic substrate was measured by FlexStation II Fluorometer (Molecular Devices). The fluorescence inhibited by the compound diluted at each concentration was measured as the relative percentage value for the amount obtained from the treatment only with the S26 protein and the fluorogenic substrate. IC50 (inhibitory concentration 50) was expressed in terms of a concentration that inhibits 50% of the maximum fluorescence induced by the fluorogenic substrate.

Sequence of Proteasome chymotrypsin-like activity (S26 protein from RPMI8226 cells) (P28074 60-263 limits assumed): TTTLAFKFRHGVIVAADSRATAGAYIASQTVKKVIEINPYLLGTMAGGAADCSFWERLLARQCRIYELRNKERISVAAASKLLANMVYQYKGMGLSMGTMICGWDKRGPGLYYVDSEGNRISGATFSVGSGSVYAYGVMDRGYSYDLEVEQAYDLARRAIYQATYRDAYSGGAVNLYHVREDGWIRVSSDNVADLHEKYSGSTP

`Cc1cccc(CC2(C(=O)N[C@@H](CC(C)C)B(O)O)CC(CNC(=O)c3sc(C)nc3C)=NO2)c1` (stereo partly drawn) [Example 217, ((1R)-1-(3-((2,4-dimethylthiazol-5-carboxamido)methyl)-5-(3-methylbenzyl)-4,5-dihydroisoxazol-5-carboxamido)-3-methylbutyl)boronic acid]: the IC50 was < 0.01 µM. As for `CC(C)C[C@H](NC(=O)C1(CC(C)C)CC(CNC(=O)c2cc(Cl)ccc2Cl)=NO1)B(O)O` (stereo partly drawn) [Example 90, ((1R)-1-(3-((2,5-dichlorobenzamido)methyl)-5-isobutyl-4,5-dihydroisoxazol-5-carboxamido)-3-methylbutyl)boronic acid], the half-inhibitory concentration (IC50) was < 0.025 µM. As to `Cc1nc2c(C(=O)NCC3=NOC(Cc4ccccc4)(C(=O)N[C@@H](CC(C)C)B(O)O)C3)cccn2c1Cl` (stereo partly drawn) [Example 140, ((1R)-1-(5-benzyl-3-((3-chloro-2-methylimidazo[1,2-a]pyridin-8-carboxamido)methyl)-4,5-dihydroisoxazol-5-carboxamido)-3-methylbutyl)boronic acid], the 50% inhibitory concentration (IC50) is < 0.01 µM. In the case of `CC(C)C[C@H](NC(=O)C1(Cc2ccccc2)CC(CNC(=O)c2ccnnc2)=NO1)B(O)O` (stereo partly drawn) [Example 166, ((1R)-1-(5-benzyl-3-((pyridazin-4-carboxamido)methyl)-4,5-dihydroisoxazol-5-carboxamido)-3-methylbutyl)boronic acid] it was < 0.025 µM; in that of `CC(C)C[C@H](NC(=O)C1CC(CNC(=O)c2cnccn2)=NO1)B(O)O` (stereo partly drawn) [Example 83, ((1R)-3-methyl-1-(3-((pyrazin-2-carboxamido)methyl)-4,5-dihydroisoxazol-5-carboxamido)butyl)boronic acid], < 0.25 µM. As for `Cc1cccc(CC2(C(=O)N[C@@H](CC(C)C)B(O)O)CC(CNC(=O)c3cccn4ccnc34)=NO2)c1` (stereo partly drawn) [Example 238, ((1R)-1-(3-((imidazo[1,2-a]pyridin-8-carboxamido)methyl)-5-(3-methylbenzyl)-4,5-dihydroisoxazol-5-carboxamido)-3-methylbutyl)boronic acid], the IC50 is < 0.01 µM. The same measure for `CC(C)C[C@H](NC(=O)C1(Cc2ccccc2)CC(CNS(=O)(=O)c2cccc3cccnc23)=NO1)B(O)O` (stereo partly drawn) [Example 144, ((1R)-1-(5-benzyl-3-((quinolin-8-sulfonamido)methyl)-4,5-dihydroisoxazol-5-carboxamido)-3-methylbutyl)boronic acid]: < 0.01 µM; for `Cc1cccnc1C(=O)NCC1=NOC(Cc2ccccc2)(C(=O)N[C@@H](CC(C)C)B(O)O)C1` (stereo partly drawn) [Example 159, ((1R)-1-(5-benzyl-3-((3-methylpicolinamido)methyl)-4,5-dihydroisoxazol-5-carboxamido)-3-methylbutyl)boronic acid]: < 0.01 µM; for `CC(C)C[C@H](NC(=O)C1(Cc2ccccc2)CC(CNC(=O)c2cn(C)c3ccccc23)=NO1)B(O)O` (stereo partly drawn) [Example 208, ((1R)-1-(5-benzyl-3-((1-methyl-1H-indol-3-carboxamido)methyl)-4,5-dihydroisoxazol-5-carboxamido)-3-methylbutyl)boronic acid]: < 0.01 µM.

Take `O=C(NCC1=NOC(Cc2ccccc2)(C(=O)N[C@@H](Cc2ccccc2)B(O)O)C1)c1cccn2cnnc12` (stereo partly drawn) [Example 306, ((1R)-1-(3-(([1,2,4]triazolo[4,3-a]pyridin-8-carboxamido)methyl)-5-benzyl-4,5-dihydroisoxazol-5-carboxamido)-2-phenylethyl)boronic acid]: the IC50 was < 0.01 µM. With `CC(C)C[C@H](NC(=O)C1(Cc2ccccc2)CC(CNC(=O)Cc2ccccc2)=NO1)B(O)O` (stereo partly drawn) [Example 109, ((1R)-1-(5-benzyl-3-((2-phenylacetamido)methyl)-4,5-dihydroisoxazol-5-carboxamido)-3-methylbutyl)boronic acid], the IC50 is < 0.01 µM.

With `CC(C)C[C@H](NC(=O)C1(Cc2ccccc2)CC(COCc2cccc(-c3ccccc3)c2)=NO1)B(O)O` (stereo partly drawn) [Example 54, ((1R)-1-(3-(([1,1′-biphenyl]-3-ylmethoxy)methyl)-5-benzyl-4,5-dihydroisoxazol-5-carboxamido)-3-methylbutyl)boronic acid], the IC50 was < 0.01 µM. `COc1ccc(-c2cccc(COCC3=NOC(Cc4ccccc4)(C(=O)N[C@@H](CC(C)C)B(O)O)C3)c2)cc1` (stereo partly drawn) [Example 56, ((1R)-1-(5-benzyl-3-(((4′-methoxy-[1,1′-biphenyl]-3-yl)methoxy)methyl)-4,5-dihydroisoxazol-5-carboxamido)-3-methylbutyl)boronic acid]: the half-inhibitory concentration (IC50) was < 0.01 µM.

Consider `CC(C)C[C@H](NC(=O)C1CC(c2ccc(Oc3ccccc3)cc2)=NO1)B(O)O` (stereo partly drawn) [Example 44, ((1R)-3-methyl-1-(3-(4-phenoxyphenyl)-4,5-dihydroisoxazol-5-carboxamido)butyl)boronic acid], for which the IC50 is < 0.5 µM. In the case of `COc1cccc(CC2(C(=O)N[C@@H](CC(C)C)B(O)O)CC(CNC(=O)c3cc(-c4ccccc4)nn3C(C)C)=NO2)c1` (stereo partly drawn) [Example 230, ((1R)-1-(3-((1-isopropyl-3-phenyl-1H-pyrazol-5-carboxamido)methyl)-5-(3-methoxybenzyl)-4,5-dihydroisoxazol-5-carboxamido)-3-methylbutyl)boronic acid] it was < 0.01 µM; in that of `CC(C)C[C@H](NC(=O)C1(Cc2ccccc2)CC(COCc2ccccn2)=NO1)B(O)O` (some centres unmarked) [Example 268], < 0.01 µM. `CC(C)C[C@H](NC(=O)C1CC(c2ccc(-c3cccc(F)c3)cn2)=NO1)B(O)O` (stereo partly drawn) [Example 28, ((1R)-1-(3-(5-(3-fluorophenyl)pyridin-2-yl)-4,5-dihydroisoxazol-5-carboxamido)-3-methylbutyl)boronic acid]: the IC50 was < 0.25 µM. For the compound `CC(C)C[C@H](NC(=O)C1CC(c2cnc3ccccc3c2)=NO1)B(O)O` (stereo partly drawn) [Example 29, ((1R)-3-methyl-1-(3-(quinolin-3-yl)-4,5-dihydroisoxazol-5-carboxamido)butyl)boronic acid], the half-inhibitory concentration (IC50) is < 0.5 µM. Regarding `CC(C)C[C@H](NC(=O)C1(Cc2ccccc2)CC(CNC(=O)c2ccccc2Cl)=NO1)B(O)O` (some centres unmarked) [Example 286], the concentration for half-maximal inhibition (IC50) was < 0.01 µM. The same measure for `Cc1ccc(F)cc1C(=O)NCC1=NOC(Cc2ccccc2)(C(=O)N[C@@H](CC(C)C)B(O)O)C1` (stereo partly drawn) [Example 111, ((1R)-1-(5-benzyl-3-((5-fluoro-2-methylbenzamido)methyl)-4,5-dihydroisoxazol-5-carboxamido)-3-methylbutyl)boronic acid]: < 0.01 µM.

Turning to `CC(C)C[C@H](NC(=O)C1(Cc2cc(F)cc(F)c2)CC(CNC(=O)c2nccc3ccccc23)=NO1)B(O)O` (stereo partly drawn) [Example 183, ((1R)-1-(5-(3,5-difluorobenzyl)-3-((isoquinolin-1-carboxamido)methyl)-4,5-dihydroisoxazol-5-carboxamido)-3-methylbutyl)boronic acid], the IC50 was < 0.01 µM. Turning to `O=C(NCC1=NOC(Cc2ccccc2)(C(=O)N[C@@H](Cc2ccccc2)B(O)O)C1)c1cccc2ncnn12` (stereo partly drawn) [Example 313, ((1R)-1-(3-(([1,2,4]triazolo[1,5-a]pyridin-5-carboxamido)methyl)-5-benzyl-4,5-dihydroisoxazol-5-carboxamido)-2-phenylethyl)boronic acid], the IC50 was < 0.01 µM. As for `O=C(NCC1=NOC(Cc2ccccc2)(C(=O)N[C@@H](Cc2ccccc2)B(O)O)C1)c1cccc2ccccc12` (stereo partly drawn) [Example 299, ((1R)-1-(3-((1-naphthamido)methyl)-5-benzyl-4,5-dihydroisoxazol-5-carboxamido)-2-phenylethyl)boronic acid], the IC50 was < 0.01 µM. In the case of `CC(C)C[C@H](NC(=O)C1(Cc2ccccc2)CC(COc2cccc3ccccc23)=NO1)B(O)O` (some centres unmarked) [Example 278] it was < 0.01 µM; in that of `CC(C)C[C@H](NC(=O)C1(Cc2ccccc2)CC(CNC(=O)c2cccn3c(Cl)cnc23)=NO1)B(O)O` (stereo partly drawn) [Example 142, ((1R)-1-(5-benzyl-3-((3-chloroimidazo[1,2-a]pyridin-8-carboxamido)methyl)-4,5-dihydroisoxazol-5-carboxamido)-3-methylbutyl)boronic acid], < 0.01 µM; in that of `CC(C)C[C@H](NC(=O)C1(Cc2ccccc2)CC(CNC(=O)c2cnc3ccccc3n2)=NO1)B(O)O` (stereo partly drawn) [Example 122, ((1R)-1-(5-benzyl-3-((quinoxalin-2-carboxamido)methyl)-4,5-dihydroisoxazol-5-carboxamido)-3-methylbutyl)boronic acid], < 0.01 µM. In the case of `Cc1cc(COCC2=NOC(Cc3ccccc3)(C(=O)N[C@@H](CC(C)C)B(O)O)C2)ccn1` (some centres unmarked) [Example 276] it was < 0.01 µM. With `CC(C)C[C@H](NC(=O)C1(Cc2ccccc2)CC(CNC(=O)c2ccccc2-c2ccccc2)=NO1)B(O)O` (stereo partly drawn) [Example 97, ((1R)-1-(3-([1,1′-biphenyl]-2-carboxamidomethyl)-5-benzyl-4,5-dihydroisoxazol-5-carboxamido)-3-methylbutyl)boronic acid], the IC50 is < 0.01 µM. Turning to `CC(C)C[C@H](NC(=O)C12CCCC1C(CNC(=O)c1nccc3ccccc13)=NO2)B(O)O` (stereo partly drawn) [Example 198, ((1R)-1-(3-((isoquinolin-1-carboxamido)methyl)-3a,5,6,6a-tetrahydro-4H-cyclopenta[d]isoxazol-6a-carboxamido)-3-methylbutyl)boronic acid], the IC50 is < 0.1 µM.
